In one data set the test system is rabbit aortic ring. Description: Vessel ring bioassay of SNO-Hb preparations (Examples 4, 13). It counts as cell-based. Particulars: for vasoactivity in vascular ring bioassay: no added thiol (FIG. 4A). The procedure:
Details of the vessel ring bioassay have been published (Stamler, J. S., et al., Proc. Natl. Acad. Sci. USA 89:444-448 (1992)). SNO-Hb(FeII)O2 preparations were synthesized with 10-fold excess S-nitrosocysteine (CYSNO) over Hb(FeII)O2 protein (2% borate, 0.5 mM EDTA, ˜15 min incubation), after which desalting was performed across Sephadex G-25 columns. CYSNO was synthesized in 0.5 N HCl, 0.5 mM EDTA and then neutralized (1:1) in 1 M phosphate buffer containing 0.5 mM EDTA. […] The latter was synthesized by treatment of Hb(FeII)O2 with excess ferricyanide, followed by desalting across G-25 columns. SNO-Hb concentrations were verified spectroscopically and the S-nitrosothiol content was determined by the method of Saville (Stamler, J. S., et al., Proc. Natl. Acad. Sci USA 89:444-448 (1992)). The S—NO/tetramer stoichiometry for both SNO-Hb preparations was ˜2. Oxidation of the heme was undetectable by uv-spectrophotometric methods.
The aortic ring bioassay was performed as described in Example 4. The product of the reaction in which a ratio of 100:1 CYSNO/Hb tetramer was used, contains 2 SNOs as well as NO attached to the heme.

The test system of data set [1] is rabbit thoracic aortic rings, endothelium removed. Description: Oxygen-dependent vessel ring bioassay (Examples 22, 23). It counts as cell-based.
In data set [2] the test system is substantia nigra, caudate putamen nucleus and parietal cortex of Sprague-Dawley rats. Description: O2-dependent local cerebral blood flow in rats (Example 25). It counts as in vivo, rat. The note with it: 1 μmol/kg infused over 3 minutes. Here is the method: Adult male Sprague-Dawley rats (290-350 g) were anesthetized with sodium pentobarbital (50 mg/kg IP), intubated and ventilated with a small animal respirator (Edco Scientific Inc., Chapel Hill, N.C.) at a rate and tidal volume to maintain normal values of PaCO2 (35-45 mm Hg; PaCO2=systemic arterial blood carbon dioxide tension). The femoral vein and artery were cannulated for infusion of drugs and for continuous monitoring of systemic blood pressure, respectively. Aliquots of arterial blood (200 μl) were drawn periodically to measure blood gas tensions and pH (Instrumentation Laboratory Co., model 1304 blood gas/pH analyzer). The blood was replaced intravenously with three volumes of normal saline. The inspired O2 concentration was varied using premixed gases balanced with nitrogen. The tissue PO2 was measured continuously with polarographic platinum microelectrodes (50 μm O.D. coated with hydrophobic gas permeable Nafion) implanted stereotaxically in both the right and left hippocampus (AP-3.4 mm, ML+2.2 mm), caudate putamen nucleus and substantia nigra (see coordinates below) (Young, W., Stroke, 11:552-564 (1980); Heiss, W. D. and Traupett, H., Stroke, 12:161-167 (1981); Dewhirst, M. W. et al., Cancer Res., 54:3333-3336 (1994); Kerger, H. et al., Am. J. Physiol., 268:H802-H810 (1995)). The PO2 electrodes were polarized to −0.65V against a distant Ag/AgCl reference located on the tail and the current flow was measured using a low-impedance nA-meter. Regional arterial PO2 was adjusted by changing the inspired O2 concentration and atmospheric pressure.
Polarographic hydrogen (H2)-sensitive microelectrodes were implanted stereotaxically in the substantia nigra (AP −5.3 mm, ML −2.4 mm to the bregma, depth 3.2 mm), caudate putamen nucleus (CPN) (AP +0.8 mm, ML −2.5 mm, depth 5.2 mm) and parietal cortex, for measurement of regional blood flow (Young, W., Stroke, 11:552-564 (1980); Heiss, W. D. and Traupett, H., Stroke, 12:161-167 (1981)). The microelectrodes were made from platinum wire and insulated with epoxy, with the exception of the tip (1 mm) which was coated with Nafion. For placement, the electrodes were mounted on a micromanipulator and the rat's head was immobilized in a Kopf stereotaxic frame. H2-sensitive electrodes were polarized to +400 mV against a distant reference electrode on the tail, and the polarographic current was measured using a low-impedance nA meter during and after the inhalation of hydrogen gas (2.5%) for 1 min. Both the hydrogen clearance curves and voltage for oxygen measurements were made using PC WINDAQ (software, DI-200 AC, Dataq Instruments, Inc., Akron, Ohio). Cerebral blood flow was calculated using the initial slope method (Young, W., Stroke, 11:552-564 (1980); Heiss, W. D. and Traupett, H., Stroke, 12:161-167 (1981)). Regional blood flow responses were monitored for 30 min. prior to and 30 min. following drug administration; hemoglobins were given at time 0.
The cerebrovascular effects of SNO-Hb were measured in adult male Sprague-Dawley rats using O2 and H2 (blood flow)-sensitive microelectrodes that were placed stereotaxically in several regions of the brain as for Example 24.

The next data set deals with rat red blood cells. The data set can be described thus: S-nitrosation of intraerythrocytic Hb on incubation of red blood cells with RSNOs. Particulars: oxygenated rat red blood cells. It is filed as cell-based. The procedure: Incubation of rat erythrocytes with S-nitrosocysteine (equimolar to heme (5 mM); phosphate buffer pH 7.4, 25° C.) leads to rapid formation of intracellular SNO-Hb(FeII)O2. […] By 60 min, 3 of the 4 available SH groups of Hb were S-nitrosated (note that rat Hb contains 4 reactive SH groups). […] Spectrum A is that of SNO-Hb isolated from erythrocytes following G-25 chromatography. Treatment of A with dithionite results in reduction of the S—NO moiety, liberating free NO which is autocaptured by deoxy Hb, forming Hb(FeII)NO (note that dithionite simultaneously deoxygenates Hb) (spectrum C). […] The spectrum of Hb(FeII)NO containing 4 NO's per tetramer is shown for comparison (inset, spectrum B).
At shown intervals, red blood cells were pelleted rapidly by centrifugation, washed three times, lysed in deionized water at 4° C., and the cytosolic fraction subjected to rapid desalting across G-25 columns. Intracellular SNO-Hb was measured by the method of Saville (Gaston, B., et al., (1992); Stamler, J. S., et al., Proc. Natl. Acad. Sci. USA, 89:444-448 (1992)), and confirmed spectroscopically (inset of FIG. 3A) as described above.

The next data set deals with Sprague-Dawley rat. Description: Mean arterial blood pressure in anesthetized rats after femoral vein bolus (Examples 5, 6). It counts as in vivo. The note with it: 2-200 nmol/kg bolus. The text has this: Rats were anesthetized by intraperitoneal injection of pentobarbital and the femoral arteries and veins accessed by local cut down. The artery was then cannulated and the blood pressure monitored continuously using a Viggo Spectramed pressure transducer attached to a Gould recorder. An IBM PC (DATA Q Codas) was used for data acquisition.

The test system of data set [3] is rat brain (caudatoputamen nucleus). Description: Brain blood flow in rats by H2 clearance (Example 12). It is filed as in vivo. The note with it: rats breathing 21% O2; 100 or 1000 nmol/kg. The procedure:
SNO-Hb(FeII)O2, having a SNO/Hb ratio of 2, was prepared (from HbA0) by reaction with S-nitrosothiol. Rats breathing 21% O2 were injected (time 0) with Hbs prepared from HbA0 as indicated in FIG. 10 (open circles, SNO-Hb (100 nmol/kg); filled circles, SNO-Hb (1000 nmol/kg); filled squares, unmodified Hb (1000 nmol/kg)). Three rats were used per experiment. Blood flow was measured in brain using the H2 clearance method; microelectrodes were placed in the brain stereotactically. […] NO group release is promoted by local tissue hypoxia.

Data set [4] can be described thus: Decomposition and stability of SNO-Hb forms. It counts as physicochemical. The procedure:
Hbs in PBS (0.5 mM EDTA, pH 7.4) were incubated in air (oxy) or in a tonometer previously evacuated of O2 (deoxy). SNO-Hb(FeII)O2 decomposition was determined by the method of Saville (Saville, B., Analyst 83:670-672 (1958)). Spontaneous decomposition of SNO-Hb(FeII) was followed spectrophotometrically by formation of Hb(FeII)NO. Transnitrosation reactions with glutathione were performed by addition of 100-fold excess glutathione over protein (50 μM), immediate processing of the reaction mixture under anaerobic conditions followed by rapid TCA precipitation, and analysis of RSNO in the supernatant. Rates of NO group transfer were too rapid to measure accurately by the standard methods used in this study.

Regarding “100:1 CYSNO/Hb product: Hb treated with 100:1 S-nitrosocysteine; contains 2 SNOs as well as NO attached to the heme (polynitrosated)”, the “potency in aortic ring bioassay” value in the data set on rabbit aortic ring (Hb treated with S-nitrosocysteine 100:1 (FIG. 11)) is recorded as “much greater than that of SNO-Hb(FeIII)”.
For `N[C@@H](CCC(=O)N[C@@H](CSN=O)C(=O)NCC(=O)O)C(=O)O` [GSNO, S-nitrosoglutathione], the “vasorelaxant effects, dependence on PO2” value in data set [1] (95%, 21%, <1% O2 (FIG. 20D)) is reported as “largely independent of PO2”. The “local cerebral blood flow” value in data set [2] (100% O2 + 3 ATA) and in data set [2] (100% O2) was “increased brain perfusion” throughout. Moreover, the “formation of intraerythrocytic SNO-Hb on treatment of red blood cells” value (from here on “formation of intraerythrocytic SNO-Hb”) with rat red blood cells is on record as “not”.
As for `[N]=O` [NO, nitric oxide, reference compound], in the data set on rabbit aortic ring (in the presence of Hb(FeII)O2 or Hb(FeIII)), the “relaxant activity of free NO” value is recorded as “devoid of relaxant activity”.
On to `N[C@@H](CSN=O)C(=O)O` [S-nitrosocysteine], for which the “formation of intraerythrocytic SNO-Hb” value in the data set on rat red blood cells is recorded as “very rapid formation of intracellular SNO-Hb(FeII)O2”.
Consider `N[C@@H](CSN=O)C(=O)NCC(=O)O` [S-nitrosocysteinylglycine], for which the “formation of intraerythrocytic SNO-Hb” value in the data set on rat red blood cells is recorded as “formed”.
For the molecule `N[C@@H](CCSN=O)C(=O)O` [S-nitrosohomocysteine], the “formation of intraerythrocytic SNO-Hb” value in the data set with rat red blood cells is “formed”.
For the molecule “Hb(FeII)O2: oxyhemoglobin, cell-free, not S-nitrosated [reference compound]”, in the data set with rabbit aortic ring (glutathione 100 ∥M in bioassay chambers (FIG. 4B)), the “effect of added glutathione on the dose-response” value is “did not significantly influence the response”. Also, in the data set on rabbit aortic ring, the “vasoactivity in vascular ring bioassay” value was “Contractile effects”. The “time for elevations in blood pressure to reverse” value with Sprague-Dawley rat lay within 10 to 15 min.
In the case of “Hb(FeIII): methemoglobin, heme iron oxidized to FeIII [reference compound]”, in the data set on rabbit aortic ring, the “vasoactivity in vascular ring bioassay” value is recorded as “contractile properties”.
For “SNO-Hb: S-nitrosohemoglobin, hemoglobin S-nitrosylated at thiol groups (cysβ93)”, the “effect on vessel tone” value in data set [1] (1 μM, rings contracted with phenylephrine under hypoxic conditions (6-7 torr)) is “relaxations”. Besides, the “effect of 10 μM glutathione on the response” value in data set [1] (10 μM glutathione in bioassay chambers) is reported as “potentiates the vasorelaxant response”. For the same molecule, the “effect on vessel tension” value in data set [1] (95% O2 or 21% O2 (R-structure)) is listed as “contract blood vessels”; in data set [1] (<1% O2 (~6 torr), T-structure), “does not”. Also, the “blood flow to the brain” value in data set [3] is reported as “improves blood flow to the brain”. For the same molecule, the “local cerebral blood flow” value was “improved blood flow in all three regions of the brain tested” in data set [2] (21% O2), “tended to decrease cerebral flow to similar extents” in data set [2] (100% O2 + 3 ATA) and “significantly attenuated” in data set [2] (100% O2).
On to “SNO-deoxyHb: S-nitroso-deoxyhemoglobin synthesized in an anaerobic environment”, for which the “effect on vessel tension” value in data set [1] (<1% O2 (~6 torr), T-structure) was “modest effect on baseline tone”. Moreover, the “stability of the isolated preparation” value in data set [4] (as synthesized in Example 27) was “highly unstable”. Besides, in data set [4] (deoxy conformation versus oxy state, PBS pH 7.4), the “rates of RSNO decomposition (and transfer)” value is “much faster”.
Regarding “deoxyHb: deoxyhemoglobin, not S-nitrosated”, in data set [1] (<1% O2 (~6 torr), T-structure), the “effect on vessel tension” value is on record as “powerful contractile agent”.
